System: G proteins on NCI-H716 cells
Experiment: Radiometric [35S]GTPγS binding assay with NCI-H716 cell membranes
Assay type: biochemical, human
Details: for GTPγS binding to G proteins as compared to non-specific binding (NSB): NCI-H716 cell membrane fractions, 10 μl 50 mM compound in 50 μl assay, 2 hours at 25° C.; for effect of added transducin on the level of GTPγS binding to G proteins: transducin 4 μg/50 μl assay added together with compound (FIG. 4C, 5C)
Procedure: [^35S] GTPγS binding assays were performed in triplicate in 96-well plates [see Northup et al., J. Biol. Chem., 257, 11416-23 (1982)]. To each well the following was added and allowed to incubate for 2 hours at 25° C.: […] of a 2× buffer (5 mM HEPES pH 7.8, 1 μM GTPγS, 4 μCi/ml [^35S]GTPγS); 10 μl 50 mM dextromethorphan or doxylamine; and 15 μl ([…]) NCI-H7-16 cell membranes or supernatant (supernatant from NCI-H716 cells spun at 900 g (S1), pellets from NCI-H716 cells spun at 900 g (P1), and pellets from NCI-H716 cells spun at 100,000 g (P2)). Where indicated, transducin was also added (4 μg/50 μl assay). The total assay volume per well was 50 μl.
To separate the free [^35S] GTPγS from the [^35S] GTPγS that bound to G proteins, 40 μl of the mixture was filtered using a pre-wet Millipore Multiscreen Filtration opaque 96-well plate (0.45 μm mixed cellulose acetate, #MHABN4550). The samples were washed three times with 0.2 ml ice-cold wash buffer (0.5 M Tris-HCl, 0.04 M-magnesium chloride 6H20, 1 M sodium chloride) using a Whatman Polyfiltronics manifold under pressure from a Gast vacuum pump (#DOA-P104 AA) set to 10 PSI. The rubber manifold of the Multiscreen plates was removed and the filters were allowed to dry under warm lights and a fan for 15 minutes.
The plates were then fitted with adapter plates (Packard #6005178) and 30 μl Microscint PS (#6013631) was added to each well. Next, the plates were heat sealed with Packard TopSeal-S sealing film (#6005161) using a Packard Micromate 496 heat sealer. Radioactivity bound to the filter plates was counted in a Packard Top Count NXT scintillation counter.

| Structure (SMILES) | amount of compound needed to saturate NCI-H716 cell membranes in GTPγS binding (2 μg of NCI-H716 cell membranes (FIG. 6B)) [mM] | GTPγS binding to G proteins in the absence of transducin (NCI-H716 cell fractions, no transducin added (FIG. 4A)) | GTPγS binding to G proteins as compared to non-specific binding (NSB) | effect of added transducin on the level of GTPγS binding to G proteins |
| --- | --- | --- | --- | --- |
| COc1ccc2c(c1)[C@]13CCCC[C@@H]1[C@H](C2)N(C)CC3 [dextromethorphan] | 10 | increased the binding to G proteins | increase this binding | little effect |
| CN(C)CCOC(C)(c1ccccc1)c1ccccn1 (stereo not drawn) [doxylamine] | – | – | increase this binding | significantly increased the binding to G proteins |
